This note sets out measurements from PMC9120013, “Ribosome inhibition by C9ORF72-ALS/FTD-associated poly-PR and poly-GR proteins revealed by cryo-EM” (Nature Communications, 2022).

Data set [1] relates to ribosomes on endogenous beta-globin mRNA in RRL. Put plainly: Toeprinting of 80S and 4-5-mer polysome fractions on beta-globin mRNA. The following applies: for Ratio (START to CDS) / Normalized ratio START/ORF: 80S fraction, primer A, Fig. 2f independent repeat; for Normalized ratio START/ORF: no inhibitor = 1; for normalized ratio START to CDS, MEAN: 4-5-mer, primer B, mean of ten 20 bp windows. The format is biochemical, rabbit. As for the experimental part:
Toeprinting analyses were carried out similarly to those in refs. [51],[74], using 80S and polysome (4–5-some) fractions collected from polysome profiles as described in “Polysome Profiles” except that reactions were doubled in size (200 μL), performed at 37 °C, and were stopped with ice-cold 1xAMV Buffer (50 mM Tris-HCl pH 8.3, 50 mM KCl, 5 mM MgCl2) with 200 μg/ml cycloheximide before being separated on at 10–35% sucrose gradient in 1xAMV buffer with 0.5 mM spermidine and 1 mM DTT. 600 μl of each fraction (80S or 4–5-mer) was supplemented with 10 mM DTT. Then 10 U of AMV reverse transcriptase (Promega), 120 nmol dNTPs, and 120 pmol of a 5'[6-carboxyfluorescein (FAM)]-labeled primer (IDT-DNA) were added. Two primers specific to the endogenous beta-globin mRNA in RRL were used in separate reactions: 5′-(FAM)-GGACTCGAAGAACCTCTG (as in ref. [74]) annealed 136 nucleotides downstream of the AUG or 5′-(FAM)-[…] annealed to the end of the 3'-UTR. Primers were extended at 37 °C for 30 min, and then the reaction were extracted in 1:1 phenol:chloroform, supplemented with 1/10 volume of 3 M sodium acetate pH 5.2, and precipitated with 2.5 volumes of 100% ethanol. Pellets were resuspended in 10 μl of deionized formamide (Applied Biosystems) with 1/20 volume of a 35-500 nucleotide orange-dye labeled DNA size standard (MCLab) and loaded onto a 96-well plate. The samples were sent for fragment analysis by capillary electrophoresis to the UMass Chan Medical School Molecular Biology Core Laboratory using an ABI3730XL DNA Fragment Analyzer with capillaries loaded with POP-7 polymer and with an injection voltage of 12.5 kV. Data collection was performed with GeneMapper software (ABI). Data were exported as.fsa files and were analyzed (aligning to ladder and background correction) in GeneMarker 3.0.1 software (SoftGenetics) running in demo mode. Screen captures of traces were taken and traces were integrated using the “Quantification” feature and manually adjusting sliders to include the desired nucleotide range.

Data set [2] deals with firefly luciferase enzyme. The data set can be described thus: Control: firefly luciferase enzyme activity in RRL without mRNA. Type of data set: biochemical. The following applies: 1 µM added after 120 s to 40 nM enzyme in RRL; n=6. The source says: The following additional controls indicate that DPR-induced changes in fluorescence were caused by translation inhibition.
Supplementary Fig. 1. […]

In another data set the test system is total HEK293 RNA. Put plainly: DPR-induced RNA aggregation, turbidity OD600. The format is physicochemical. The following applies: for visible opalescence / OD600 change: 10 µM; for OD600 change / optical density relative to RNA alone: 100 ng/μl HEK293 RNA; for optical density relative to RNA alone: 0.2 to 1 µM, 20 min, room temperature. As to the method: To test whether arginine-containing DPR proteins cause mRNA aggregation at the DPR concentrations sufficient to inhibit protein synthesis (0.2 and 1 μM), we measured turbidity (optical density at 600 nm; OD600; similarly to[41]) of the solutions containing 100 ng/μl total HEK293 RNA. We incubated RNA with PR20, GR20, GP20 (control), or water for 20 min at room temperature. […] Optical density was measured using NanoDrop One (Thermo Scientific, Waltham, MA, USA).

The next data set deals with rabbit 80S ribosomes. Put plainly: Kinetic peptidyl transfer (puromycin) assay on rabbit 80S ribosomes. The format is biochemical. The source says:
To test the effects of PR20 on the mammalian peptidyl transferase, 80S ribosomes were purified from rabbit reticulocyte lysate (Green Hectares) and dissociated into 40S and 60S subunits as described in the section entitled “Cryo-EM complex of mammalian 80S ribosome with PR20”. A model leaderless mRNA fragment placing the AUG codon in the P-site and the UUC codon in the A site (CCAC AUG UUC CCCCCCCCCCCCCCCCCC), was synthesized by IDT. The 80S•mRNA•fMet-tRNA^fMet complex with PRn (where n = 10, 20, or 40) or GR20 was assembled as follows. one micrometer 60S subunit was mixed with the DPR (starting with the initial DPR concentration of 33x relative to its final concentration in the reaction) in Assembly Buffer containing 20 mM Tris-acetate (pH 7.0), 100 mM KOAc, 10 mM Mg(OAc)2, and the mixture was incubated for 5 min at 30 °C. […] 1095 nM [^35S]-fMet-tRNA^fMet and the 60S solution were added (0.5 volumes of the 40S solution), resulting in the following concentrations: 330 nM 60S, 400 nM 40S, 730 nM tRNA, 11 µM mRNA and 11x of final concentration of a DPR in the buffer (20 mM Tris-acetate (pH 7.0), 100 mM KOAc, 10 mM Mg(OAc)2). The solution was incubated for 5 min at 30 °C. The solution was diluted ten times with the same buffer, then puromycin (prepared in the same buffer) was added and time progress curves were recorded.
The kinetics of puromycin reaction on the 70S or 80S ribosomes were recorded and analyzed essentially as described. An aliquot (4.5 μl) of the complex prior to addition of puromycin was quenched in 30 μl of saturated MgSO4 in 0.1 M NaOAc to represent the zero-time point. Five microliters of 500 µM puromycin (in the same buffer as that used for the ribosomal complex) was added to 45 μl of the complex to initiate the reaction, yielding estimated final concentrations: 30 nM for the ribosome, 1 µM mRNA, 66 nM [^35S]-fMet-tRNA^fMet, 50 µM puromycin, and varying concentrations of PRn and GRn peptides, from 30 nM to 2 μM. After 6, 15, 30, 90 s, and 5, 15, 30, 60, and (for slower reactions) 180 min, 5-μl aliquots were quenched in 30 μl of saturated MgSO4 in 0.1 M NaOAc. All quenched samples were extracted with 700 μl ethyl-acetate. 600 μl of the extract were mixed with 3.5 ml of Econo-Safe scintillation cocktail (RPI), and the amount of released [^35S]-labeled dipeptide was measured for each time point using a scintillation counter (Beckman Coulter, Inc.).
All time progress curves were recorded in duplicates, using independently prepared 70S or 80S complexes. Reaction rates were calculated using single-exponential or double-exponential (80S complexes) regressions for different concentrations of PRn and GRn using GraphPad Prism 8. Hyperbola fitting in Gnuplot was used to derive apparent Ki-values.

Ends that are not written are not given here.

In the case of `N=C(N)NCCC[C@H](NC(=O)CNC(=O)[C@H](CCCNC(=N)N)NC(=O)CNC(=O)[C@H](CCCNC(=N)N)NC(=O)CNC(=O)[C@H](CCCNC(=N)N)NC(=O)CNC(=O)[C@H](CCCNC(=N)N)NC(=O)CNC(=O)[C@H](CCCNC(=N)N)NC(=O)CNC(=O)[C@H](CCCNC(=N)N)NC(=O)CNC(=O)[C@H](CCCNC(=N)N)NC(=O)CNC(=O)[C@H](CCCNC(=N)N)NC(=O)CNC(=O)[C@H](CCCNC(=N)N)NC(=O)CNC(=O)[C@H](CCCNC(=N)N)NC(=O)CNC(=O)[C@H](CCCNC(=N)N)NC(=O)CNC(=O)[C@H](CCCNC(=N)N)NC(=O)CNC(=O)[C@H](CCCNC(=N)N)NC(=O)CNC(=O)[C@H](CCCNC(=N)N)NC(=O)CNC(=O)[C@H](CCCNC(=N)N)NC(=O)CNC(=O)[C@H](CCCNC(=N)N)NC(=O)CNC(=O)[C@H](CCCNC(=N)N)NC(=O)CNC(=O)[C@H](CCCNC(=N)N)NC(=O)CNC(=O)[C@H](CCCNC(=N)N)NC(=O)CN)C(=O)O` [GR20], in data set [1], the “site of ribosome accumulation, toe-printing of polysome fractions” value is listed as “accumulate within the open reading frame”; the “Ratio (START to CDS)” value was found to be 1.504; the “Normalized ratio START/ORF” value is 0.5576. The “normalized ratio START to CDS, MEAN” value in data set [1] (Fig. 2g) is reported as 0.4196. For the same molecule, the “normalized ratio START to CDS, MEAN” value in data set [1] (Fig. 2h independent repeat) is given as 0.5964. For the same molecule, in data set [2], the “effect on firefly luciferase enzyme activity” value is on record as “do not affect enzyme activity”. In the data set on total HEK293 RNA, the visible opalescence entry is recorded as “did not induce visible opalescence”, the OD600 change entry is listed as “increased OD600” and the “optical density relative to RNA alone” value is listed as “did not increase optical density”. Moreover, the “effect on peptidyl transfer on rabbit 80S” value in the data set on rabbit 80S ribosomes (2 µM, n=2) is listed as “inhibits peptidyl transfer”.
With “PRPRPRPRPRPRPRPRPRPRPRPRPRPRPRPRPRPRPRPR [PR20]”, in data set [1], the “site of ribosome accumulation, toe-printing of polysome fractions” value is listed as “accumulate at the start codon”; the “Ratio (START to CDS)” value was determined as 5.983; the “Normalized ratio START/ORF” value is 2.218. Further, the “normalized ratio START to CDS, MEAN” value in data set [1] (Fig. 2g) came to 2.067. Besides, in data set [1] (Fig. 2h independent repeat), the “normalized ratio START to CDS, MEAN” value was 3.436. Further, the “effect on firefly luciferase enzyme activity” value in data set [2] was “do not affect enzyme activity”. Besides, in the data set with total HEK293 RNA, the visible opalescence result was “did not induce visible opalescence”, the OD600 change result was “increased OD600” and the “optical density relative to RNA alone” value is “did not increase optical density”. In addition, in the data set with rabbit 80S ribosomes (30 nM 80S), the “concentration at which inhibition of peptidyl transfer starts” value was ~ 100 nM.
